15 compounds from US5871954A, “Fatty acid analog enzyme substrates” (Washington University, priority 1993, dated 1999) can be followed below.

Entries after “also recorded” stand apart in the source; their conditions may differ. Starred links: 1 amine or outer side, 2 acyl side, 3 side chain; linkers in the order of their positions; H or OH if unused. Non-standard residues stand in square brackets, D forms with d. No end group written: not given here. *: point of attachment. Tyr(125I) = 125I-iodotyrosine, O=C([C@H](Cc1ccc(O[*:3])c([125I])c1)N[*:1])[*:2]; 11‑(ethylthio)undecanoyl = CCSCCCCCCCCCCC(=O)*

For one series, the system named is wheat germ NMT. Description: in vitro wheat germ NMT myristoylation assay, kinetics with iodinated peptide GNAAS[125I]YRR. The class given is biochemical. The method, then: Myristoyl CoA and fatty acid analog CoA were generated by incubation of the fatty acid or analog with CoA, ATP and CoA ligase. This reaction mixture was added to wheat germ NMT and Gly-Asn-Ala-Ala-Ser-[^125 I]Tyr-Arg-Arg in the presence of 0.03% Triton® X-100. Reaction products were characterized by reverse phase HPLC and gamma counting.
The invention is illustrated in greater detail in the following Examples 1 to 15 by the synthesis and testing of representative compounds of the invention as myristoylating enzyme substrates. Accordingly, the invention is first illustrated in Examples 1 to 5 by the chemical synthesis of a sulfur-containing analog of myristic acid, namely 11-(ethylthio)undecanoicacid, CH3 CH2 --S--(CH2)10 COOH, which is then tested in vitro as a wheat germ NMT substrate. Wheat germ NMT is a protein similar to yeast NMT. The purity and chemical identity of the synthesized compound were examined using ^1 H and ^13 C NMR as well as mass spectroscopy. The assay that was used to characterize the substrate specificity of wheat germ NMT measures the rate of attachment of a radiolabelled fatty acid to an unlabelled peptide. The fatty acid analog synthesized was nonradioactive.
The in vitro assay for NMT activity requires the enzymatic generation of fatty acyl CoA. Since the Pseudomonas acyl CoA ligase is quite nonspecific [Shimizo et al., Anal. Biochem. 107, 193-198 (1980)] and is used in excess, it should equally well convert myristic acid and 11-(ethylthio)undecanoic acid to the corresponding CoA esters. It is, therefore, believed that the data represent the relative catalytic efficiency of fatty acyl CoA and analog CoA for wheat germ NMT.
Assays for NMT activity were performed using a procedure detailed previously by Towler and Glaser, Proc. Natl. Acad. Sci. USA 83, 2812-2816 (1986). Briefly, the in vitro assay measures the transfer of radiolabelled fatty acid from acyl CoA to a synthetic peptide substrate. The acylpeptide product is identified by reverse phase HPLC. Time and enzyme dependence were evaluated by varying the reaction time or the enzyme concentration. […] Fatty acid specificity was examined essentially as described by Towler et al., J. Biol. Chem. 262, 1030-1036 (1987), except that the peptide Gly-Ser-Ser-Lys-Ser-Lys-Pro-Lys rather than Gly-Asn-Ala-Ala-Ala-Ala-Arg-Arg was used to compare palmitate and myristate utilization by wheat germ NMT. This was necessary because of the presence of a large, peptide-independent peak which co-eluted with a palmitoyl-Gly-Asn-Ala-Ala-Ala-Ala-Arg-Arg standard. [^3 H]Palmitate and [^3 H]myristate were used in this comparison. [^14 C]fatty acids were used to compare C-10, C-12 and C-14 chain lengths. Fatty acyl CoA concentrations in these assays were determined by a modification of the method of Hosaka et al., Methods Enzymol. 71, 325-333 (1981).
Gly-Asn-Ala-Ala-Ser-[^125 I]Tyr-Arg-Arg as prepared in Example 2, above, was tested in an in vitro myristoylation system which was modified from that used with radiolabelled fatty acids. […] 20-fold more wheat germ NMT (480-fold purified as in Example 3, above) was used for these assays than for assays which employed [^3 H] myristate. […] Double reciprocal plots were generated for the iodinated peptide with both myristic acid and the sulfur analog by altering the peptide concentration in the presence of a constant amount of fatty acid or analog. […] The assays contained 0.03% Triton X-100 to maintain the solubility of the fatty acids.

A short description of series [1]: C18 reverse phase HPLC elution of acyl peptides (hydrophobicity). It counts as physicochemical. The note with it: for elution earlier than the corresponding myristoyl peptide: acyl-GNAASYRR[125I]; for Elution Time: Table 2, C18 reverse phase HPLC; for elution time of fatty acyl derivative of GNAAAARR: HPLC. The protocol: The fatty acid analog acyl-peptide eluted 7 minutes earlier than the corresponding myristoyl peptide. The free peptide elutes in the void volume (3-5 minutes).
This difference was evident when the HPLC elution characteristics of fatty acyl peptides were examined. The elution time of a particular acyl-peptide depends strongly on the peptide sequence as well as on the acyl chain attached to that peptide. For example, the elution times of fatty acyl derivatives of GNAAAARR are (in minutes) decanoic acid, 9; dodecanoic acid, 18; myristic acid, 24; and palmitic acid, 30. Elution times for fatty acyl derivatives of GNAAS[^125 I]YRR are 23 and 28 minutes for C12 and C14 fatty acids, respectively (FIG. 2). […] Such a change could alter the biological activity of myristoyl proteins.
(§1) For these Examples, each analog synthesized is characterized by ^1 H and 13C NMR as well as mass spectroscopy. The analogs are then characterized kinetically as NMT substrates. Briefly, fatty acid analogs are converted to their CoA esters with Pseudomonas CoA ligase and incubated with the iodinated peptide GNAAS[^125 I]YRR and a source of NMT. […] The radiolabelled peptide is then used at concentrations which will lead to 50% enzyme saturation (i.e., at its Km) for the determination of fatty acid analog kinetic characteristics. Representative analogs with sulfur or oxygen in the backbone of the fatty acid chain serve as good substrates for NMT in vitro and will compete for incorporation of ^3 H labelled myri-state into yeast proteins in vivo. In addition, these analogs differ markedly in hydrophobicity from myri-state as measured both by C18 reverse phase HPLC elution profiles and by 2-octanol/water partition coefficients. The analog CH3 O (CH2)11 COOH, for example, partitions into water 20 fold better than myristate. It is believed that these analogs will be incorporated into mammalian acylproteins in vivo and that their incorporation into these proteins will drastically alter protein processing or targeting. It is further believed that the incorporation of fatty acid analogs of both myristate and palmitate into ester linked and phosphatidyl inositol glycan linked acylproteins will also dramatically alter their properties. Since many viral proteins and oncogenes are acylated, these compounds represent a new class of potential antiviral and antineoplastic agents.

Another series has as its target T1, yeast NMT (Saccharomyces cerevisiae, UniProt P14743).
T1 construct: 11,000-fold purified preparation of yeast NMT; from tissue; host or cells: yeast
T1 sequence (P14743 1-455): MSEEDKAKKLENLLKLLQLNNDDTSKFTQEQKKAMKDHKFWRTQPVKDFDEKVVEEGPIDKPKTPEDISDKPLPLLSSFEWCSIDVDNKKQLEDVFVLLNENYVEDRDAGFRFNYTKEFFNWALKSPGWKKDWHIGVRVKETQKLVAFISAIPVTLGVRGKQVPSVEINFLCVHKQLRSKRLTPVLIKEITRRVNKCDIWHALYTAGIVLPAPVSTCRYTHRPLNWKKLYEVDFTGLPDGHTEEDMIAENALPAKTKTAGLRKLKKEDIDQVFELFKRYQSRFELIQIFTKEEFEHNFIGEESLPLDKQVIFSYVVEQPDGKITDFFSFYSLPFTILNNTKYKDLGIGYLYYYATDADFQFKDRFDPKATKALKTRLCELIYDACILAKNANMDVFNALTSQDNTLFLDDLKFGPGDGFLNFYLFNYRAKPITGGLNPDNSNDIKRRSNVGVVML
Description: in vitro yeast NMT assay, kinetics of fatty acid analog substrates with iodinated peptide GNAAS[125I]YRR. It counts as biochemical. The note with it: for Peptide Vm / Acyl CoA Vm: Table 2, relative to myristate control 100%; for Peptide Vm: fatty acid analog at 15 μM; for Acyl CoA Vm: peptide at its Km.
Excerpt: Similar results were obtained using an 11,000-fold purified preparation of yeast NMT [Towler et al., Proc. Natl. Acad. Sci. USA 84, 2708-2712 (1987)].
Other illustrative examples of the oxy- and thio-substituted fatty acid analog substrate compounds of the invention were synthesized in Examples 6 to 14 and tested in Example 15 as substrates for the yeast NMT.
as §1

In series [2] the target is T2, myristoyl CoA: protein N-myristoyl transferase (NMT) (Saccharomyces cerevisiae, UniProt P14743).
T2 construct: CoA ester made in situ by Pseudomonas CoA ligase
T2 sequence (P14743 1-455): T1 sequence (P14743 1-455)
Description: substrate activity for myristoylating enzyme (general statement). The class given is biochemical. The note with it: in words. The protocol: Purification and use of this enzyme are described, for example, by Towler et al., Proc. Natl. Acad. Sci. USA 84, 2708-2712 (1987); J. Biol. Chem. 262, 1030-1036 (1987).
as §1, with “It is further believed that the incorporation of fatty acid analogs of both myristate and palmitate into ester linked and phosphatidyl inositol glycan linked acylproteins will also dramatically alter their properties. Since many viral proteins and oncogenes are acylated, these compounds represent a new class of potential antiviral and antineoplastic agents.” left out

Where [3] appears, read: C-18 reverse phase HPLC, FIG. 2.
The mark [4] stands for this setting: iodinated peptide 40 μM, 0.03% Triton X-100, FIG. 1.

Regarding `CCSCCCCCCCCCCC(=O)SCCNC(=O)CCNC(=O)[C@H](O)C(C)(C)COP(=O)(O)OP(=O)(O)OC[C@H]1O[C@@H](n2cnc3c(N)ncnc32)[C@H](O)[C@@H]1OP(=O)(O)O`, the “substrate quality vs myristoyl CoA” value in the series on wheat germ NMT (wheat germ NMT) is reported as “at least as good a substrate for wheat germ NMT as myristoyl CoA itself”.

As for “11-(ethylthio)undecanoyl-GNAASYRR[^125 I]: fatty acid analog acyl-peptide ({11‑(ethylthio)undecanoyl}-GNAAS[Tyr(125I)]RR)”, the “elution earlier than the corresponding myristoyl peptide” value is 7 min in series [1] (setting [3]) and “seven minutes earlier” in series [1] (C-18 reverse phase HPLC, FIG. 2, listed as 11-(ethylthio)undecanoyl-GNAAS [^125 I]YRR).

`CCCOCCCCCCCCCC(=O)O` [CH3 (CH2)2 O(CH2)9 COOH, 10-(Propoxy)decanoic acid]: at yeast NMT, the “Peptide Vm” value is listed as 150% and the “Acyl CoA Vm” value was 250%.

As for `CCCSCCCCCCCCCC(=O)O` [CH3 (CH2)2 S(CH2)9 COOH, 10-(Propylthio)decanoic acid], on yeast NMT, the “Acyl CoA Vm” value is given as 250%. Besides, the “Elution Time” value in series [1] is 18 min.

Consider `CCCCOCCCCCCCCCCC(=O)O` [CH3 (CH2)3 O(CH2)10 COOH, 11-(1-Butoxy)undecanoic acid], for which, on yeast NMT, the “Peptide Vm” value is 25% and the “Acyl CoA Vm” value amounted to 80%. In addition, the “Elution Time” value in series [1] was determined as 19 min. For the same compound, the effectiveness as substrate result in series [2] is recorded as “less effective than the analogs based on C13 -C14 fatty acids”.

As to `CCCCCCCCOCCCCC(=O)O` [CH3 (CH2)7 O(CH2)4 COOH, 5-(octyloxy)pentanoic acid], in series [1], the “Elution Time” value turned out to be 16 min.

`CCCCCCCCSCCCCC(=O)O` [CH3 (CH2)7 S(CH2)4 COOH, 5-(Octylthio)pentanoic acid]: the “Acyl CoA Vm” value on yeast NMT was 160%. In addition, in series [1], the “Elution Time” value was determined as 21 min.

`CCCCCCCCCCCCCC(=O)O` [CH3 (CH2)12 COOH, myristic acid, reference compound]: on yeast NMT, the “Peptide Vm” value worked out at 100% and the “Acyl CoA Vm” value worked out at 100%. The “elution time of fatty acyl derivative of GNAAS[125I]YRR” value in series [1] (setting [3]) turned out to be 28 min. In addition, in series [1], the “elution time of fatty acyl derivative of GNAAAARR” value (“elution time … of GNAAAARR” below) was 24 min and the “Elution Time” value came out at 26 min.

With `CCOCCCCCCCCCCC(=O)O` [CH3 CH2 O(CH2)10 COOH, 11-(Ethoxy)undecanoic acid], on yeast NMT, the “Peptide Vm” value turned out to be 62% and the “Acyl CoA Vm” value is listed as 64%. Besides, the “Elution Time” value in series [1] worked out at 12 min.

Take `CCSCCCCCCCCCCC(=O)O` [CH3 CH2 S(CH2)10 COOH, 11-(Ethylthio)undecanoic acid]: in the series on wheat germ NMT (in words, vs myristic acid), the “effect on the kinetic characteristics of the peptide substrate” value is recorded as “did not significantly alter the kinetic characteristics of the peptide substrate”. For the same compound, in the series on wheat germ NMT (setting [4]), the “Km (as CoA ester), times higher than for myristate” value stood at 1.5 times and the “Vmax (as CoA ester), times higher than for myristate” value came out at 3.5 times. Besides, the “apparent maximal velocity, times higher than with myristic acid” value in the series on wheat germ NMT (peptide substrate varied) was determined as 2.3 times. The “Km and Vmax vs C14:0 fatty acid” value on yeast NMT (11,000-fold purified yeast NMT) is recorded as “indistinguishable from that of the C14:0 fatty acid”. In addition, at yeast NMT, the “Peptide Vm” value is listed as 98% and the “Acyl CoA Vm” value came out at 130%. In addition, the “Elution Time” value in series [1] turned out to be 18 min. The hydrophobicity entry in series [1] (in words, vs myristic acid) is given as “decreases its hydrophobicity; also recorded: significantly different from that of myristic acid”. Moreover, the effectiveness as substrate result in series [2] is reported as “leaves intact its ability to act as a substrate”.

In the case of `C#CCOCCCCCCCCCC(=O)O` [HC≡CCH2 O(CH2)9 COOH, 10-(2-Propynoxy)decanoic acid], at yeast NMT, the “Peptide Vm” value is listed as 200% and the “Acyl CoA Vm” value is 320%. In series [1], the “Elution Time” value turned out to be 9 min.

On to `CCCCCCCCCC(=O)O` [decanoic acid, reference compound], for which, in series [1], the “elution time … of GNAAAARR” value came out at 9 min.

As to `CCCCCCCCCCCC(=O)O` [dodecanoic acid, reference compound], the “elution time of fatty acyl derivative of GNAAS[125I]YRR” value in series [1] (setting [3]) came to 23 min. For the same compound, the “elution time … of GNAAAARR” value in series [1] came to 18 min.

Regarding `CCCCCCCCCCCCCCCC(=O)O` [palmitic acid, reference compound], in series [1], the “elution time … of GNAAAARR” value is 30 min.

Turning to “Gly-Asn-Ala-Ala-Ser-[^125 I]Tyr-Arg-Arg [free peptide, reference compound]”, the “elution of free peptide (void volume)” value in series [1] (setting [3]) was in the range of 3 to 5 min.
